In patent US20100266712A1, “Prevention of Acute Kidney Injury” (Austin Health, priority 2007, published 2010):

Columns and labels:
[1] = system: high-risk cardiac surgical patients undergoing cardiopulmonary bypass
Protocol: A double-blind, randomised, placebo controlled trial of the effect of sodium bicarbonate on postoperative renal function and oxidative stress in subjects undergoing elective cardiopulmonary bypass surgery was conducted.
The Human Research Ethics Committee of the Austin Hospital approved the trial and the Therapeutic Goods Administration of the Australian Government, Department of Health and Ageing approved the use of sodium bicarbonate for this indication. Written informed consent was obtained from each patient. Patients were identified in surgical pre-admission clinics and on hospital wards. Patients who were enrolled were at high risk of post-operative AKI and were scheduled for elective cardiac surgery necessitating the use of CPB at a university tertiary referral hospital (Austin Hospital) and a co-located large private hospital (Warringal Hospital). Those considered at high risk for post-operative AKI, defined as fulfilling one or more pre-defined inclusion criteria and no exclusion criteria, were considered eligible. Patients at particular risk of post-bypass renal injury were defined as having at least one of the following: (a) age >70; (b) preoperative creatinine […]; (c) New York Heart Association symptom severity class 3 or 4; (d) valve surgery; (e) insulin dependent diabetes mellitus; or (f) redo surgery.
(§1) Body weight adjusted dose of study medication was achieved by infusion of 154 mEq/L of sodium bicarbonate (Pfizer, Bentley, WA, Australia) or sodium chloride (Astra Zeneca, North Ryde, NSW, Australia) diluted in 5% dextrose (Baxter, Sydney, NSW, Australia) and H2O at an infusion rate of 3 mL kg^−1 h^−1 for 1 hour immediately after the induction of anesthesia, prior to the first surgical incision followed by continuous infusion at an infusion rate of 1 mL kg^−1 n^−1 over 23 hours. Sodium bicarbonate or sodium chloride was administered at a dose of 0.45 mEq/kg body weight over 1 hour followed by continuous intravenous infusion of 0.15 mEq/kg/hr over 23 hours (total dose of 4 mEq/kg over 24 hours).
The hospital pharmacy clinical trials coordinator used a Microsoft Excel-based (Microsoft Corp. Redmond, Wash., USA) random number generator to create the randomization list using a permuted block strategy with blocks of six. Infusion bags were each delivered in separate shrink-wrapped black plastic bags that were identical in appearance. Allocation concealment to patients, anesthesiologists, cardiac surgeons, intensive care specialists, bedside nurses and investigators (multiple blind) was ensured by central randomization through the Department of Pharmacy at the Austin Hospital.
The primary study outcome measure was the number of patients who developed post-operative acute kidney injury. This was defined as an increase in plasma creatinine concentration greater than 0.5 mg/dL (44 μmol/L) or greater than 25% from baseline to peak value at any time within the first five post-operative days. This definition is identical to that used in a recent large randomized controlled trial of cardiac surgery-associated AKI.
The renal secondary outcomes for this study were changes in plasma creatinine concentration within the first five post-operative days and in urinary neutrophil gelatinase-associated lipocalin (NGAL) concentration within the first 24 hours post-operatively. Creatinine was sampled daily and NGAL was sampled prior to induction of anesthesia, at 6 hours and at 24 hours after commencement of CPB. Creatinine was measured using the modified Jaffé method and NGAL as recently described (Mishra et al, 2005).
All data were analyzed according to the intention-to-treat principle. Continuous data were tested for normal distribution using histograms. Between-group comparisons for continuous data were performed with the use of the t test or the Mann-Whitney U test and for categorical data with the use of Fisher exact test or chi-square test where appropriate.

[2] = system: high-risk cardiac surgical patients undergoing cardiopulmonary bypass; remark: listed apart in the source
Protocol: as §1
Additional secondary outcomes included changes in acid-base status, clinical outcomes such as need for renal replacement therapy, duration of ventilation, length of intensive care unit and hospital stay, and adverse events.
(§2) All data were analyzed according to the intention-to-treat principle. Continuous data were tested for normal distribution using histograms. Between-group comparisons for continuous data were performed with the use of the t test or the Mann-Whitney U test and for categorical data with the use of Fisher exact test or chi-square test where appropriate. All tests were 2-tailed and a P value <0.05 was taken to indicate statistical significance. Values were reported as means with standard error of the mean (SEM) and mean difference or odds ratio (OR) with 95% confidence interval (95% CI) estimate as appropriate.

[3] = system: high-risk cardiac surgical patients undergoing cardiopulmonary bypass; remark: listed apart in the source
Protocol: as §1
Specific adverse events targeted for detection included the incidence of hypernatremia ([Na^+]>150 mEq/L), hypokalemia ([K^+]<3.5 mEq/L), alkalemia (pH>7.50), post-operative atrial fibrillation and other post-operative arrhythmias (supraventricular arrhythmias, ventricular tachycardia and ventricular fibrillation) during study treatment.
as §2

[4] = from before to 24 hours after commencement of study infusion, N = 50
[5] = sodium bicarbonate vs sodium chloride
[6] = sodium bicarbonate vs sodium chloride, P<0.001

O=C([O-])O.[Na+] [sodium bicarbonate]
increase in urinary NGAL concentration ([1]; baseline to peak within first 24 hours post-operatively, compared to sodium chloride, P=0.009, FIG. 1B): attenuated
relative increase in plasma creatinine ([1]; baseline to peak within first five post-operative days, mean ± SEM, P=0.01 vs sodium chloride): 28.5±6.5%
absolute increase in plasma creatinine concentration ([1]; compared to sodium chloride patients, P=0.01, FIG. 1A): less
patients with a plasma creatinine increase greater than 50% from baseline to peak value ([1]; patients/N, control 15/50): 8/50
patients who developed post-operative AKI ([1]; patients/N, plasma creatinine increase >0.5 mg/dL (44 μmol/L) or >25% from baseline to peak within first five post-operative days, 4 mEq/kg i.v. over 24 hours): 16/50
odds ratio for post-operative AKI ([1]; vs. sodium chloride control group (26/50), 95% CI 0.19-0.98, P=0.04): 0.43
odds ratio for plasma creatinine increase greater than 50% ([1]; vs. sodium chloride control, 95% CI 0.17-1.17, P=0.10): 0.44
absolute risk reduction for AKI ([1]; vs. sodium chloride control, 95% CI 1.1-39.0%): 20%
urine pH ([2]; 6 and 24 hours after commencement of study drug infusion, P<0.001 vs control, FIG. 1C): induced urinary alkalinization
Length of stay in hospital, mean (SEM) ([2]; N = 50, P=0.60): 10.4 (1.0) days
Length of ventilation, mean (SEM) ([2]; N = 50, P=0.83): 1657 (299) min
Length of stay in intensive care unit, mean (SEM) ([2]; N = 50, P=0.96): 73.8 (14.0) hrs
Hospital deaths ([2]; N = 50, P>0.99): 1 (2) no. (%)
Renal replacement therapy ([2]; N = 50, P>0.99): 2 (4) no. (%)
Change in plasma base excess, mean (SEM) [2, 4]: 3.8 (0.5)
Change in plasma bicarbonate, mean (SEM) [2, 4]: 3.7 (0.5) mEq/L
Change in plasma pH, mean (SEM) [2, 4]: 0.04 (0.01)
Length of stay in hospital, Mean Difference [2, 5]: -0.8 days
Length of stay in intensive care unit, Mean Difference [2, 5]: -1.0 h
Length of ventilation, Mean Difference [2, 5]: -99 min
Change in plasma base excess, Mean Difference [2, 6]: 6.0
Change in plasma bicarbonate, Mean Difference [2, 6]: 5.2 mEq/L
Change in plasma pH, Mean Difference [2, 6]: 0.07
patients with plasma sodium concentration >150 mEq/L (hypernatremia) ([3]; during study treatment, both groups): No patient
patients with an episode of supraventricular tachycardia ([3]; during study treatment, of 50 patients): One
patients with a pH level greater than 7.50 (alkalemia) ([3]; during study treatment, of 50 patients, P=0.24): three
incidence of new-onset atrial fibrillation ([3]; during treatment, patients/N, control 4/50, P>0.99): 5/50
patients with plasma potassium <3.5 mEq/L (hypokalemia) ([3]; patients/N, control 1/50, P=0.20): 5/50
